Test results: patent US10766866B2, “Deterrents for arthropods and marine organisms” (priority 2017, dated 2020)

Experiments:
[1] = system: IsTOctR (Ixodes octopamine receptor), cloned α-like OctR; test: OctR activation: change in intracellular calcium (CALCIUM 6QR dye, FlexStation 3) in stably transfected mammalian cells; type: cell-based, Ixodes scapularis; details: agonist, read-out: IsTOctR (Ixodes octopamine receptor) EC50
Description: (§1) Functional expression of cloned arthropod OctRs and human α2-ARs: The cDNAs for α-like OctRs from different arthropod species (e.g., Anopheles gambiae, Aedes aegypti, Periplaneta americana, Drosophila melanogaster, Ixodes scapularis, Balanus improvises) and for α2-AR subtypes from humans were individually subcloned into mammalian expression vectors. These plasmids, which harbor a resistance gene for the selection drug G418 and the cDNA sequence for the receptor of interest, were individually transfected into mammalian cells using a calcium phosphate precipitation method. G418 selection was then employed to generated stable clonal cell lines. Utilizing rapid filtration radioligand binding techniques, the cell surface density of receptor expression of the individual clonal cell lines was determined at equilibrium and those with similar high levels of expression were selected for further experiments. Briefly, binding conditions were 50 mM Tris binding buffer pH 7.4 at 25° C. and an ice-cold wash buffer 10 mM Tris-HCl, pH 7.4). The radioligand was [3H]rauwolscine and non-specific binding was determined in the presence of 10 μM atipamezole. Following the addition of membranes prepared from the clonal cell lines, samples were mixed and allowed 2 hr. to reach equilibrium before rapid filtration and washing through 0.3% PEI-treated GF/C filters. The radioactivity remaining on the filters was quantified by scintillation counting. Receptor density (Bmax) was back calculated knowing the specific activity of the radioligand and applying the equation for a square hyperbola model: Bmax=(Y·(KD+X))/X, where Y is [specifically bound radioligand] and X=[radio ligand concentration]. The affinity (KD) for the radioligand for each receptor was determined in separate saturation isotherm binding experiments using the same binding conditions as describe above.
(§2) Measurement of OctR activation by measuring changes in intracellular calcium: Activation of arthropod α-like OctRs increases intracellular calcium via a Gq-coupling mechanism. This involves activation of phospholipase C leading to an increase in intracellular inositol triphosphate (IP3) which then activates IP3-gated calcium channels in the endoplasmic reticulum causing a transient rise in intracellular calcium. These changes in intracellular calcium upon OctR activation were measured by loading cells with intracellular calcium sensitive dye CALCIUM 6QR and reading the change in calcium-induced fluorescent signal over time on a FlexStation 3 microplate reader.

[2] = target: T1, Hsα2C-AR (human α2C adrenergic receptor) (Homo sapiens, UniProt P18825); test: [3H]rauwolscine competition radioligand binding, membranes of clonal mammalian cell lines; details: 50 mM Tris pH 7.4, 25° C., 2 hr, Cheng-Prusoff
T1 construct: expressed in transfected cells
T1 sequence (P18825 1-462): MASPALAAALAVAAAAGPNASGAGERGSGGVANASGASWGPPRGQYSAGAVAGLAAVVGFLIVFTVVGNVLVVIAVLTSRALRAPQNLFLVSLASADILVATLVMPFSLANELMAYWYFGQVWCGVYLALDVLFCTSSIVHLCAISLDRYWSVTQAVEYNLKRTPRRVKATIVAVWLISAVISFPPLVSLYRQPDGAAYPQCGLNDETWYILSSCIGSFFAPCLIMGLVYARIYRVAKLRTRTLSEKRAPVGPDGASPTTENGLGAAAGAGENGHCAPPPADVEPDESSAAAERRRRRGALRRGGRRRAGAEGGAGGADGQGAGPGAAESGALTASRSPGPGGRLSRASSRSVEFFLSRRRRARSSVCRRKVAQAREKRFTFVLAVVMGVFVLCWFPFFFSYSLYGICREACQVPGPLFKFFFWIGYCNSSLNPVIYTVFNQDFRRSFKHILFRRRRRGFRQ
Description: as §1
(§3) Measurement of compound affinities by competition radioligand binding: Affinities (Ki) for compounds were determined by [3H]rauwolscine competition binding using the same binding conditions as described above. The Ki values were calculated from IC50 values using the Cheng-Prusoff equation.

[3] = target: T2, Hsα2A-AR (human α2A adrenergic receptor) (Homo sapiens, UniProt P08913); test: as above; details: 50 mM Tris pH 7.4, 25° C., 2 hr, Cheng-Prusoff
T2 construct: expressed in transfected cells; membranes
T2 sequence (P08913 whole entry): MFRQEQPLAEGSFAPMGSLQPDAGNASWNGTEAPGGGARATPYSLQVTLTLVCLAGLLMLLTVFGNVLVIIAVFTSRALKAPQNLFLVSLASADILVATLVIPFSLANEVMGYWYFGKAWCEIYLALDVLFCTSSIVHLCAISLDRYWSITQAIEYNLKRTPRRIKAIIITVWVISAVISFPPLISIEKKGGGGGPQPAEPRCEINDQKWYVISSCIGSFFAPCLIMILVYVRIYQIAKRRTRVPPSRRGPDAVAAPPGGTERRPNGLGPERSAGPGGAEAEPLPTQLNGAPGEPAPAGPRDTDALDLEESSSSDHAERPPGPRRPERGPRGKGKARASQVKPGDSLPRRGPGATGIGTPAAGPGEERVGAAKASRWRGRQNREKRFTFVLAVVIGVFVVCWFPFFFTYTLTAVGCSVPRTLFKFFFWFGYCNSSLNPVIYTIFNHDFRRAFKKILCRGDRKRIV
Description: as §1, §3

[4] = target: T3, PaOctR (Periplaneta octopamine receptor), cloned α-like OctR (Periplaneta americana, UniProt Q7YWB7); test: OctR activation: change in intracellular calcium (CALCIUM 6QR dye, FlexStation 3) in stably transfected mammalian cells; type: cell-based; details: agonist
T3 construct: Gq calcium readout
T3 sequence (Q7YWB7 1-628): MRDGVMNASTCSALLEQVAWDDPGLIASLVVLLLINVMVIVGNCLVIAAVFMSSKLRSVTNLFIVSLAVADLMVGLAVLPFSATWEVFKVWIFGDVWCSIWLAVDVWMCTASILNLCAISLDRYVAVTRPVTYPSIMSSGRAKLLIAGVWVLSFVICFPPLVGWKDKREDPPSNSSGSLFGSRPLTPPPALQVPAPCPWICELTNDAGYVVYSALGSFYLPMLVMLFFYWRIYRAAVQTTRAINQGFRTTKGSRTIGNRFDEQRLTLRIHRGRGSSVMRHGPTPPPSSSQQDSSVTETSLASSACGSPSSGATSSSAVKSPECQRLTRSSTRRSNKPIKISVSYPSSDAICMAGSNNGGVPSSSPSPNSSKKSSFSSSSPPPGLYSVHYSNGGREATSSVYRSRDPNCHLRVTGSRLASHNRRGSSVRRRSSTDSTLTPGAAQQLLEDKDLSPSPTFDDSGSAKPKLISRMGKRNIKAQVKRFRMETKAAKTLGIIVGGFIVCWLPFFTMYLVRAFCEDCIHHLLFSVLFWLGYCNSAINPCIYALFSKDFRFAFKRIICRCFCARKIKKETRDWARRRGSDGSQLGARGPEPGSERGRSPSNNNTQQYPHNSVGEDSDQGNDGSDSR
Description: as §1, §2

[5] = target: T4, AgAOctR (Anopheles octopamine receptor isoform A), cloned α-like OctR (Anopheles gambiae, UniProt Q7PRZ8); test: as above; type: cell-based; details: agonist
T4 construct: Gq calcium readout
T4 sequence (Q7PRZ8 1-592): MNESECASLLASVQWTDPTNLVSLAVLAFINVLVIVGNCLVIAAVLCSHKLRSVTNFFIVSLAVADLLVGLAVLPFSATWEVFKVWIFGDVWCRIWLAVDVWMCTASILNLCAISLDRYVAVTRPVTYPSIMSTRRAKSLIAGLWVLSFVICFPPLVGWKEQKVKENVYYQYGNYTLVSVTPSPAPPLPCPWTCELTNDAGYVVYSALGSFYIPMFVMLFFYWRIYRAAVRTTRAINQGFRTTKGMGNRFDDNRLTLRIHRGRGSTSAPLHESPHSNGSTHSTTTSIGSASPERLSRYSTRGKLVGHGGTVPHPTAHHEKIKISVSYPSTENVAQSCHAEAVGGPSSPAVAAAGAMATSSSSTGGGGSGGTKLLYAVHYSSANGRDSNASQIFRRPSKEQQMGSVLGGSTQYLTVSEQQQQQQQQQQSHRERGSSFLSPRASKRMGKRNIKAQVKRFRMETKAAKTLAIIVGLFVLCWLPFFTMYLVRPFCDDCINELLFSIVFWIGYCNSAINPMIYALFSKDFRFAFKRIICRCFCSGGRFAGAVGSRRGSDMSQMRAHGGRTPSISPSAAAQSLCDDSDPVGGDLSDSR
Description: as §1, §2

[6] = target: T5, DmOctR (Drosophila octopamine receptor), cloned α-like OctR (Drosophila melanogaster, UniProt Q7JQF1); test: as above; type: cell-based; details: agonist
T5 construct: Gq calcium readout
T5 sequence (Q7JQF1 1-645): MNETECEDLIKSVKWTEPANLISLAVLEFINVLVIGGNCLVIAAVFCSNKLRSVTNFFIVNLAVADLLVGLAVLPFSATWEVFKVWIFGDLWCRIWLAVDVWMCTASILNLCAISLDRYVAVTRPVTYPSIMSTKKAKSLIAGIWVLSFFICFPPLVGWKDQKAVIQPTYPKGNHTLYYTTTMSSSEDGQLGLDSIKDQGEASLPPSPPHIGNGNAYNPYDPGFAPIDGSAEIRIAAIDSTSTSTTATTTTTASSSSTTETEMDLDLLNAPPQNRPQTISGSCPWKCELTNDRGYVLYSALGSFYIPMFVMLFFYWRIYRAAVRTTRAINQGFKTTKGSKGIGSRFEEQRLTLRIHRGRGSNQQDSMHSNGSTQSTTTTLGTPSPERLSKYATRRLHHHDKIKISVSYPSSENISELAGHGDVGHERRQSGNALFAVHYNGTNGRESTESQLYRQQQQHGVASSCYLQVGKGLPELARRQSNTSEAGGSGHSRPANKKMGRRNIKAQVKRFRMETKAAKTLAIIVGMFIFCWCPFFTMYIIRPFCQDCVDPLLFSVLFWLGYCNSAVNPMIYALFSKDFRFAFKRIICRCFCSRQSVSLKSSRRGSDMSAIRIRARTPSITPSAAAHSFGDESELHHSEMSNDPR
Description: as §1, §2

[7] = system: AeOctR (Aedes octopamine receptor), cloned α-like OctR; test: as above; type: cell-based, Aedes aegypti; details: agonist
Description: as §1, §2

[8] = system: Anopheles gambiae mosquito isoform A OctR (AgAOctR); test: OctR activation, change in intracellular calcium; type: cell-based; details: AgAOctR over Homo sapien α2-AR subtypes
Description: as §1, §2

Row | Structure (SMILES) | EC50 [1] [nM] | Ki [2] [nM] | Ki [3] [nM] | EC50 [4] [nM] | EC50 [5] [nM] | EC50 [6] [nM] | EC50 [7] [nM] | selectivity Ki(Hsα2-AR)/EC50(OctR) [8]
1 | Cc1cccc(C(O)c2cnc[nH]2)c1C (stereo not drawn) [AZ0024] | 4.4 ± 2.9 | 558 ± 85 | 356 ± 77 | 5.9 ± 2.9 | 0.42 ± 0.13 | 57 ± 13 | 627 ± 274 | highly selective
2 | Cc1c(C(O)c2cnc[nH]2)cccc1C(F)(F)F (stereo not drawn) [AZ1399] | 43 ± 11 | 2110 ± 385 | 3210 ± 672 | 82 ± 25 | 11 ± 3.7 | 367 ± 237 |  | highly selective
3 | COC(c1cnc[nH]1)c1cccc(C)c1C (stereo not drawn) [AZ1400] | 35 ± 7.4 | 973 ± 146 | 1310 ± 247 | 85 ± 34 | 2.3 ± 0.69 | 846 ± 440 | > 20000 | highly selective
4 | C/C=C(\c1cnc[nH]1)c1cccc(C)c1C [AZ1409 Z-isomer] | 969 ± 358 |  |  |  | 58 ± 41 |  |  | 
5 | Cc1cccc(C(O)c2cnc[nH]2)c1 (stereo not drawn) [AZ1410] | 185 ± 92 | 9440 ± 6470 | 4200 ± 1760 |  | 38 ± 16 |  |  | highly selective
